Measurements published in patent US10105357B2, “Indication of antibiotic drugs for preparation of cancer inhibition pharmaceutical composition” (LAUNX BIOMEDICAL CO., LTD., priority 2014, dated 2018).
Counter-ions that a name gives are not always drawn. Like-named read-outs stand apart in the source and are kept apart here.

What was measured:
Type in all cases: cell-based, human
[1] = tested on: MKN-45 (Gastric Adenocarcinoma); test: Cell viability analysis, gastric cancer MKN-45; settings: for viability at 10 µM: Homo sapiens, MKN-45, 72 h, read-out: cell viability (survival rate), MKN-45, drug 10 μM, 72 hours, WST-1, OD450 nm
[2] = tested on: A375 (Amelanotic Melanoma); test: Cell viability analysis, skin cancer A375; settings: for viability at 10 µM: Homo sapiens, A-375, 72 h, read-out: cell viability (survival rate), A375, drug 10 μM, 72 hours, WST-1, OD450 nm
[3] = tested on: HepG2 (Hepatocellular Carcinoma); test: Cell viability analysis, hepatic cancer HepG2; settings: Homo sapiens, HepG2, 72 h, read-out: cell viability (survival rate), HepG2, drug 10 μM, 72 hours, WST-1, OD450 nm
[4] = tested on: A549 (Lung Adenocarcinoma); test: Cell viability analysis, lung cancer A549; settings: for viability at 10 µM: Homo sapiens, A549, 72 h, read-out: cell viability (survival rate), A549, drug 10 μM, 72 hours, WST-1, OD450 nm
[5] = tested on: AGS (Gastric Adenocarcinoma); test: Cell viability analysis, gastric cancer AGS; settings: for viability at 10 µM: Homo sapiens, 72 h, read-out: cell viability (survival rate), AGS, drug 10 μM, 72 hours, WST-1, OD450 nm
[6] = tested on: HeLa (Cervix Adenocarcinoma); test: Cell viability analysis, cervical cancer HeLa; settings: for viability at 10 µM: Homo sapiens, HeLa, 72 h, read-out: cell viability (survival rate), HeLa, drug 10 μM, 72 hours, WST-1, OD450 nm
[7] = tested on: LoVo (Colorectal Adenocarcinoma); test: Cell viability analysis, colon cancer LoVo; settings: for viability at 10 µM: Homo sapiens, LoVo
[8] = tested on: HI650 (Lung Adenocarcinoma); test: Cell viability analysis, lung cancer HI650; settings: for viability at 10 µM: Homo sapiens, NCI-H1650, 72 h, read-out: cell viability (survival rate), H1650, drug 10 μM, 72 hours, WST-1, OD450 nm
cancer cell lines = test: Cell viability analysis (WST-1) on cancer cell lines; settings: drug 10 μM, 72 hours; for inhibition effect on different cancer cell lines: WST-1, Table 3
[9] = tested on: HL-60 (Acute Promyelocytic Leukemia); test: Cell viability analysis, leukemia HL-60; settings: for viability at 10 µM: Homo sapiens, HL-60, 72 h, read-out: cell viability (survival rate), HL-60, drug 10 μM, 72 hours, WST-1, OD450 nm
[10] = tested on: MCF7 (Mammary Gland, Adenocarcinoma); test: Cell viability analysis, breast cancer MCF7; settings: for viability at 10 µM: Homo sapiens, MCF7, 72 h, read-out: cell viability (survival rate), MCF7, drug 10 μM, 72 hours, WST-1, OD450 nm
[11] = tested on: TSGH-8301 (Urinary Bladder Carcinoma); test: Cell viability analysis, bladder cancer TSGH-8301; settings: Homo sapiens, 72 h, read-out: cell viability (survival rate), TSGH, drug 10 μM, 72 hours, WST-1, OD450 nm
[12] = tested on: PC3 (p53−) (Prostate Adenocarcinoma); test: Cell viability analysis, prostate cancer PC3; settings: Homo sapiens, 72 h, read-out: cell viability (survival rate), PC3, drug 10 μM, 72 hours, WST-1, OD450 nm
[13] = 72 h, read-out: cell viability (survival rate), LoVo, drug 10 μM, 72 hours, WST-1, OD450 nm
[14] = drug 10 μM, 72 hours, WST-1, OD450 nm

Compound	viability at 10 µM [2]	viability at 10 µM [4]	viability at 10 µM [5]	viability at 10 µM [7, 13]	viability at 10 µM [8]	inhibition effect on different cancer cell lines (cancer cell lines)	viability at 10 µM [10]	viability at 10 µM [11]	further results
C[C@]12CCC(=O)C=C1CC[C@@H]1[C@@H]2[C@@H](O)C[C@@]2(C)[C@H]1CC[C@]2(O)C(=O)CO [Hydrocortisone (Cortisol), Hydrocortisone]	87.6%	73.6%	77.5%	83.3%	66.1%	significant inhibition effect	76.9%	125%	viability at 10 µM [1]: 81.3%; viability at 10 µM [3]: 109%; viability at 10 µM [6]: 86.1%; viability at 10 µM [9]: 105%
CCN1CCN(C(=O)N[C@@H](C(=O)N[C@@H]2C(=O)N3[C@@H]2SC(C)(C)[C@@H]3C(=O)O)c2ccccc2)C(=O)C1=O [Piperacillin Sodium]	67.9%	37.1%	98.3%	97.4%	71.6%	significant inhibition effect	52.3%	87.1%	viability at 10 µM [1]: 87.1%; viability at 10 µM [3]: 96.3%; viability at 10 µM [9]: 108%
Cc1cccn2c(=O)c(-c3nnn[nH]3)cnc12 [Pemirolast (BMY 26517) potassium, Pemirolast potassium]	70.8%	82.9%	69.4%	107%	81.8%	significant inhibition effect	83.2%	93.7%	viability at 10 µM [3]: 82.1%; viability at 10 µM [6]: 88.4%; viability at 10 µM [12]: 53.8%
N[C@@H]1CONC1=O [D-Cycloserine]						significant inhibition effect			
Meclocycline Sulfosalicylate						significant inhibition effect			
CCn1cc(C(=O)O)c(=O)c2cc(F)c(N3CCNC(C)C3)c(F)c21 (stereo not shown) [Lomefloxacin hydrochloride (Maxaquin), Lomefloxacin hydrochloride]						significant inhibition effect			
NNC(=O)c1ccncc1.Nc1ccc(C(=O)O)c(O)c1 [Pasiniazid]						significant inhibition effect			
CC1(C)[C@H](C(=O)O)N2C(=O)C[C@H]2S1(=O)=O [Sulbactam]						significant inhibition effect			viability at 10 µM ([7]; drug 10 μM, 72 hours, WST-1, OD450 nm, read-out: cell viability (survival rate), LoVo): 81.7%
Salbutamol sulfate [Salbutamol sulfate (Albuterol)]						significant inhibition effect			cell viability (survival rate), MKN-45 [1, 14]: 71.2; cell viability (survival rate), A375 [2, 14]: 98.0; cell viability (survival rate), A549 [4, 14]: 94.6; cell viability (survival rate), AGS [5, 14]: 91.8; cell viability (survival rate), HeLa [6, 14]: 99.9; cell viability (survival rate), LoVo [7, 14]: 97.1; cell viability (survival rate), H1650 [8, 14]: 84.3; Inhibitory effect on cancer cell line (cancer cell lines; WST-1, OD450 nm, Table 2: drugs which do not have significant inhibitory effect): 0; cell viability (survival rate), HL-60 [9, 14]: 104.1; cell viability (survival rate), MCF7 [10, 14]: 139.6
Cl.NC1CCN(c2c(F)cc3c(=O)c(C(=O)O)cn(C4CC4)c3c2Cl)C1 (stereo not shown) [Clinafoxacin HCl]						significant inhibition effect			
O=C(O)CCCC[C@@H]1SC[C@@H]2NC(=O)N[C@@H]21 [Biotin (Vitamin B7), Biotin]	71.3%	86.4%	104%	99.2%	94.2%	significant inhibition effect	89.1%	93.5%	viability at 10 µM [1]: 85.1%; viability at 10 µM [6]: 90.7%; viability at 10 µM [9]: 85.2%
Teicoplanin						significant inhibition effect			
